Experimental data from PubChem BioAssay (NCI).
Where “and” joins values, the source holds several entries; their conditions need not be identical. Equal entries are not always repeated.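 Results reflect a 48-hour exposure of cells in 96-well plates to compound at five concentrations. GI50: concentration for 50% inhibition of growth. TGI is the concentration that stops growth completely.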

Legend:
Assay in all cases: growth of human tumour cells (NCI), 48 h
[1] = tested on: MOLT-4 leukemia
[2] = tested on: HOP-62 NSCLC
[3] = tested on: EKVX NSCLC
[4] = tested on: HCT-116 colon
[5] = tested on: OVCAR-5 ovarian
[6] = tested on: CCRF-CEM leukemia
[7] = tested on: ACHN renal

Question: Which TGI [1] does the source give for CC(=O)OCCOCNC(=S)N/N=C/c1ccc(Br)s1 here?
Answer: > 100 µM

Question: What about the TGI [2] of the same compound?
Answer: > 100 µM

Question: And the TGI [3]?
Answer: > 100 µM

Question: And the TGI [4]?
Answer: > 100 µM

Question: And the TGI [5]?
Answer: > 100 µM

Question: And the TGI [6]?
Answer: > 100 µM

Question: And the TGI [7]?
Answer: > 100 µM

Question: Which results are given for CCOc1ccccc1NC(=O)C(C#N)C1=C(Cl)C(=O)c2ccccc2C1=O (stereo not given)?
Answer: TGI [1]: 3.32 µM; TGI [2]: 19.7 µM; GI50 [3]: 2.86 µM; TGI [3]: 2.83 µM and 5.82 µM; TGI [4]: 3.38 µM and 3.93 µM; TGI [5]: 3.57 µM and 3.55 µM; GI50 [6]: 3.15 µM; TGI [7]: 3.26 µM and 3.52 µM

Question: For C/C(CCn1[nH]c(=O)ccc1=O)=N\OCCCc1ccccc1, which TGI [1] is on record?
Answer: > 100 µM

Question: What about the TGI [2] of the same compound?
Answer: > 100 µM

Question: What about the TGI [3] of the same compound?
Answer: > 100 µM

Question: What about the TGI [4] of the same compound?
Answer: > 100 µM

Question: What about the TGI [5] of the same compound?
Answer: > 100 µM

Question: What about the TGI [6] of the same compound?
Answer: > 100 µM

Question: What about the TGI [7] of the same compound?
Answer: > 100 µM

Question: For O=S1(=O)OCCOS(=O)(=O)C1Cl, which TGI [1] is on record?
Answer: > 100 µM

Question: And the TGI [2]?
Answer: > 100 µM

Question: And the TGI [3]?
Answer: > 100 µM

Question: And the TGI [4]?
Answer: > 100 µM

Question: What about the TGI [6] of the same compound?
Answer: > 100 µM

Question: How did the TGI [1] turn out when N#CC(C(=O)CCC(=O)Nc1cccc(C(F)(F)F)c1)c1ccc(Cl)cc1 (stereo not given) was run?
Answer: > 100 µM

Question: And the TGI [2]?
Answer: > 100 µM

Question: What about the TGI [3] of the same compound?
Answer: > 100 µM

Question: And the TGI [4]?
Answer: > 100 µM

Question: What about the TGI [5] of the same compound?
Answer: > 100 µM

Question: And the TGI [6]?
Answer: > 100 µM

Question: And the TGI [7]?
Answer: > 100 µM

Question: What does the source list for c1ccc(CSc2nc3ccccc3nc2-c2cccs2)cc1?
Answer: TGI [1]: > 100 µM; TGI [2]: > 100 µM; TGI [3]: > 100 µM; TGI [4]: > 100 µM; TGI [5]: > 100 µM; TGI [6]: > 100 µM; TGI [7]: > 100 µM

Question: CC(C)(C)OC(=O)N1N=NC2C1C1CC(OCc3ccccc3)(OCc3ccccc3)C2O1 (stereo not given) was tested. Which TGI [1] did it give?
Answer: > 100 µM

Question: What about the TGI [2] of the same compound?
Answer: > 100 µM

Question: And the TGI [5]?
Answer: > 100 µM

Question: And the TGI [6]?
Answer: 63.5 µM

Question: What about the TGI [7] of the same compound?
Answer: > 100 µM

Question: With Oc1ccc(Br)cc1C=Nc1ccc(N=Cc2cc(Br)ccc2O)cc1 as the compound, how does the TGI [1] read?
Answer: > 100 µM

Question: And the TGI [3]?
Answer: > 100 µM

Question: And the TGI [4]?
Answer: > 100 µM

Question: And the TGI [5]?
Answer: > 100 µM

Question: What about the TGI [6] of the same compound?
Answer: > 100 µM

Question: What about the TGI [7] of the same compound?
Answer: > 100 µM

Question: What does the source list for O=C(O)CN(c1ccccc1)S(=O)(=O)c1ccc([N+](=O)[O-])cc1?
Answer: TGI [1]: > 100 µM; TGI [3]: > 100 µM; TGI [5]: > 100 µM; TGI [6]: > 100 µM; TGI [7]: > 100 µM

Question: Which TGI [1] does the source give for Cc1cc(C(C)(C)C)cc(Cc2cc(C(C)(C)C)cc(Cc3cc(C(C)(C)C)cc(C)c3O)c2O)c1O here?
Answer: 10.6 µM

Question: And the TGI [2]?
Answer: 28.9 µM

Question: And the TGI [3]?
Answer: 22.9 µM

Question: And the TGI [4]?
Answer: 10.2 µM

Question: And the TGI [5]?
Answer: 31.3 µM

Question: What about the TGI [6] of the same compound?
Answer: 9.04 µM

Question: What does the source list for O=c1c2ccccc2nc(-c2ccccc2)n1NC(=S)Nc1ccccc1?
Answer: TGI [1]: > 100 µM; TGI [2]: > 100 µM; TGI [4]: > 100 µM; TGI [5]: > 100 µM; TGI [6]: > 100 µM; TGI [7]: > 100 µM

Question: OCC(O)CNc1ccnc2cc(Cl)ccc12 (stereo not given) was tested. Which TGI [1] did it give?
Answer: > 100 µM

Question: And the TGI [2]?
Answer: > 100 µM

Question: And the TGI [3]?
Answer: > 100 µM

Question: And the TGI [4]?
Answer: > 100 µM

Question: And the TGI [5]?
Answer: > 100 µM

Question: What about the TGI [6] of the same compound?
Answer: > 100 µM

Question: What about the TGI [7] of the same compound?
Answer: > 100 µM

Question: What does the source list for CCOC(=O)Cn1c(=O)n(C)c(=O)c2c1ncn2Cc1ccccc1?
Answer: TGI [1]: > 100 µM; TGI [2]: > 100 µM; TGI [3]: > 100 µM; TGI [4]: > 100 µM; TGI [5]: > 100 µM; TGI [6]: > 100 µM; TGI [7]: > 100 µM

Question: How did the TGI [1] turn out when COC1=C(Br)C(=O)c2nc(C)ccc2C1=O was run?
Answer: > 20.8 µM

Question: What about the TGI [2] of the same compound?
Answer: > 60.3 µM

Question: What about the TGI [3] of the same compound?
Answer: 33.4 µM

Question: And the TGI [4]?
Answer: 21.1 µM

Question: What about the TGI [5] of the same compound?
Answer: 34.7 µM

Question: What about the TGI [7] of the same compound?
Answer: 24 µM

Question: CC1CN1c1c(C(=O)/C=C/c2ccc(Cl)cc2)c(-c2ccccc2)nn(C)c1=O (stereo not given) was tested. Which TGI [1] did it give?
Answer: 8.02 µM

Question: What about the TGI [2] of the same compound?
Answer: 7.66 µM

Question: And the TGI [3]?
Answer: > 10 µM

Question: What about the TGI [4] of the same compound?
Answer: 6.47 µM

Question: What about the TGI [5] of the same compound?
Answer: > 10 µM

Question: What about the TGI [6] of the same compound?
Answer: 5.2 µM

Question: What about the TGI [7] of the same compound?
Answer: 5.27 µM

Question: With CC(C(=O)n1c2ccccc2c2ccccc21)N(c1ccccc1)c1ccccc1 (stereo not given) as the compound, how does the TGI [1] read?
Answer: 29.3 µM

Question: And the TGI [2]?
Answer: 32 µM

Question: What about the TGI [3] of the same compound?
Answer: 38.8 µM

Question: What about the TGI [4] of the same compound?
Answer: 32.7 µM

Question: And the TGI [5]?
Answer: 33.6 µM

Question: What about the TGI [6] of the same compound?
Answer: 4.02 µM

Question: What about the TGI [7] of the same compound?
Answer: 30.7 µM

Question: COC(=O)/C(=C\c1ccc(N(CCC#N)CCC#N)cc1)NC(=O)c1cc([N+](=O)[O-])ccc1Cl was tested. Which TGI [1] did it give?
Answer: > 100 µM

Question: What about the TGI [2] of the same compound?
Answer: > 100 µM

Question: What about the TGI [3] of the same compound?
Answer: > 100 µM

Question: What about the TGI [4] of the same compound?
Answer: > 100 µM

Question: What about the TGI [5] of the same compound?
Answer: > 100 µM

Question: And the TGI [6]?
Answer: > 100 µM

Question: What about the TGI [7] of the same compound?
Answer: > 100 µM

Question: OCCNCCOc1ccc(/C(=C(/Cl)c2ccccc2)c2ccccc2)cc1 was tested. Which TGI [1] did it give?
Answer: 17.2 µM

Question: And the TGI [2]?
Answer: 31.4 µM

Question: And the TGI [3]?
Answer: 28.6 µM

Question: What about the TGI [4] of the same compound?
Answer: 20.2 µM

Question: What about the TGI [5] of the same compound?
Answer: 28.3 µM

Question: And the TGI [6]?
Answer: 9.87 µM

Question: COc1cc(C(=O)N2CCc3c([nH]c4c([N+](=O)[O-])c(OC)ccc34)C2C)cc(OC)c1OC (stereo not given) was tested. Which TGI [1] did it give?
Answer: > 100 µM

Question: What about the TGI [2] of the same compound?
Answer: > 100 µM

Question: What about the TGI [3] of the same compound?
Answer: > 100 µM

Question: And the TGI [4]?
Answer: > 100 µM

Question: What about the TGI [5] of the same compound?
Answer: > 100 µM

Question: And the TGI [6]?
Answer: > 100 µM

Question: And the TGI [7]?
Answer: > 100 µM

Question: What does the source list for CC1=C(c2cc(C(=O)Nc3ccc(Cl)cc3)nc(=S)[nH]2)Sc2ccccc2N1?
Answer: TGI [2]: > 100 µM; TGI [3]: > 100 µM; TGI [4]: > 100 µM; TGI [5]: > 100 µM; TGI [6]: > 100 µM; TGI [7]: > 100 µM

Question: C=CCn1c2c(sc1=S)C(S)N=CN2 (stereo not given) was tested. Which TGI [1] did it give?
Answer: > 100 µM

Question: And the TGI [2]?
Answer: > 100 µM

Question: And the TGI [3]?
Answer: > 100 µM

Question: What about the TGI [4] of the same compound?
Answer: > 100 µM

Question: And the TGI [5]?
Answer: > 100 µM

Question: What about the TGI [6] of the same compound?
Answer: > 100 µM

Question: What about the TGI [7] of the same compound?
Answer: > 100 µM

Question: Which results are given for O=C(O)CSc1n[nH]c(Cc2ccccc2)n1?
Answer: TGI [1]: > 100 µM; TGI [2]: > 100 µM; TGI [3]: > 100 µM; TGI [4]: > 100 µM; TGI [5]: > 100 µM; TGI [6]: > 100 µM; TGI [7]: > 100 µM

Question: Which TGI [1] does the source give for CC1=C(C(=O)NNS(=O)(=O)c2ccc(C)cc2)CC(C(=O)NNS(=O)(=O)c2ccc(C)cc2)=C(C)N1 here?
Answer: > 100 µM

Question: What about the TGI [2] of the same compound?
Answer: > 100 µM

Question: And the TGI [3]?
Answer: > 100 µM

Question: And the TGI [4]?
Answer: > 100 µM

Question: What about the TGI [5] of the same compound?
Answer: > 100 µM

Question: And the TGI [7]?
Answer: > 100 µM

Question: Which TGI [1] does the source give for CCOc1ccccc1NC(=O)C(=O)Cc1nc2ccccc2s1 here?
Answer: > 100 µM

Question: What about the TGI [2] of the same compound?
Answer: > 100 µM

Question: And the TGI [3]?
Answer: > 100 µM

Question: And the TGI [4]?
Answer: > 100 µM

Question: What about the TGI [6] of the same compound?
Answer: > 100 µM

Question: What about the TGI [7] of the same compound?
Answer: > 100 µM
